# Tests used:
# K-Ras G12C = K-Ras G12C (Homo sapiens (Human), UniProt P01116+P62937, G12C); experiment: Ras-Raf (BRAF RBD) disruption / FRET / MOA assay, KRAS G12C; assay type: biochemical; settings: KRAS G12C; Ras-Raf disruption/FRET/MOA assay; read-out: IC50* KRAS G12C FRET data
# How it was run: (§1)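 Ras:RAF disruption was scored as a fall in TR-FRET ratio relative to DMSO. Compound ranged in 3-fold steps over 10 points from 30 μM final; incubation ran 3 h at 25° C, detection antibodies a further 1.5 h. Reported as IC50.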
# [1] = test system: NCI-H358 cells (K-Ras G12C); experiment: Potency assay: pERK in NCI-H358 cells; assay type: cell-based, human; settings: Homo sapiens, NCI-H358; H358 KRAS G12C; read-out: pERK EC50
# How it was run: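 4 h cpd, 37 °C; 10-pt 3-fold series, 10 mM DMSO top stock, duplicates. Readout pERK: AlphaLISA SureFire Ultra or In-Cell Western (IR-800CW secondary, DRAQ5 DNA stain). IC50, 4-PL fit vs log conc.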
# NRAS WT = NRAS WT (Homo sapiens (Human), UniProt P01111+P62937); experiment: Ras-Raf (BRAF RBD) disruption / FRET / MOA assay, NRAS WT; assay type: biochemical; settings: read-out: IC50* NRAS WT FRET data
# How it was run: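 TR-FRET disruption of nucleotide-loaded Ras binding to BRAF RBD via compound-driven ternary complex with cyclophilin A. Compound as 10-point 3-fold series from 30 μM final, 3 h at 25° C, then anti-His Eu-W1024 (10 nM) and anti-GST allophycocyanin (50 nM) for 1.5 h. IC50 from decreased FRET ratio versus DMSO.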
# KRAS G12D = KRAS G12D (Homo sapiens (Human), UniProt P01116+P62937, G12D); experiment: Ras-Raf (BRAF RBD) disruption / FRET / MOA assay, KRAS G12D; assay type: biochemical; settings: Ras-Raf disruption/FRET/MOA assay; class symbols; read-out: KRAS G12D FRET data IC50
# How it was run: as §1
# K-Ras G13C = K-Ras G13C (Homo sapiens (Human), UniProt P01116+P62937, G13C); experiment: Ras-Raf (BRAF RBD) disruption / FRET / MOA assay, KRAS G13C; assay type: biochemical; settings: KRAS G13C; Ras-Raf disruption/FRET/MOA assay; read-out: IC50* KRAS G13C FRET data
# How it was run: as §1
# NRAS G12C = NRAS G12C (Homo sapiens (Human), UniProt P01111+P62937, G12C); experiment: Ras-Raf (BRAF RBD) disruption / FRET / MOA assay, NRAS G12C; assay type: biochemical; settings: read-out: IC50* NRAS G12C FRET data
# How it was run: as §1
# KRAS WT = KRAS WT (Homo sapiens (Human), UniProt P01116+P62937); experiment: Ras-Raf (BRAF RBD) disruption / FRET / MOA assay, KRAS WT; assay type: biochemical; settings: read-out: IC50* KRAS WT FRET data
# How it was run: as §1
# Sequence of K-Ras G13C (P01116-2 other isoform, or with tags, fused parts or gaps G13C): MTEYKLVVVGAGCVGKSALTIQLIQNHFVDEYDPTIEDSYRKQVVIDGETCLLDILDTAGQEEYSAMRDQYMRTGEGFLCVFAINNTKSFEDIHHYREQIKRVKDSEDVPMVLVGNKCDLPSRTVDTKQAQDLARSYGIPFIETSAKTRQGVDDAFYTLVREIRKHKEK
# Sequence of K-Ras G13C (P62937 whole entry): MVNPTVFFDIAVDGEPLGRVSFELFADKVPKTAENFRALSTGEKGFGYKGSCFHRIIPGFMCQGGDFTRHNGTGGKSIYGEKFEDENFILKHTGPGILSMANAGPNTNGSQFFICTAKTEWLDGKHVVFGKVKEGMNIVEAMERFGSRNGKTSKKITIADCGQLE
# Sequence of KRAS WT (P01116-2 other isoform, or with tags, fused parts or gaps): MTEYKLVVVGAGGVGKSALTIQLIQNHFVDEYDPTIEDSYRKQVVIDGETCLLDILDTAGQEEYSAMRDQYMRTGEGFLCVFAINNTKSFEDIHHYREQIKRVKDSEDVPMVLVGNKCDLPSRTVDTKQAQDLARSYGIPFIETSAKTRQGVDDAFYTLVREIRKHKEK
# Sequence of KRAS WT (P62937 whole entry): as the sequence (P62937 whole entry) above
# Sequence of KRAS G12D (P01116-2 other isoform, or with tags, fused parts or gaps G12D): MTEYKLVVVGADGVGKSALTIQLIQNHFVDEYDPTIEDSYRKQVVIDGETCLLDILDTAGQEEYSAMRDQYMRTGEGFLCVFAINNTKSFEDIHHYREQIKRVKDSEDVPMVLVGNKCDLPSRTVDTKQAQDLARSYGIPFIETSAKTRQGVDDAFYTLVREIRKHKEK
# Sequence of KRAS G12D (P62937 whole entry): as the sequence (P62937 whole entry) above
# Sequence of NRAS WT (P01111 whole entry): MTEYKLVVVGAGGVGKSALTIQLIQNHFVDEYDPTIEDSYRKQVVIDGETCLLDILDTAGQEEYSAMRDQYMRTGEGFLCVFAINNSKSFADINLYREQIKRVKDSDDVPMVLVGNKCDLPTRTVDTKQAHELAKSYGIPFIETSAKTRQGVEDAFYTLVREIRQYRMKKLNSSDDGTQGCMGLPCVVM
# Sequence of NRAS WT (P62937 whole entry): as the sequence (P62937 whole entry) above
# Sequence of NRAS G12C (P01111 whole entry G12C): as the sequence (P01111 whole entry) above, with G12C counted along it
# Sequence of NRAS G12C (P62937 whole entry): as the sequence (P62937 whole entry) above
# Sequence of K-Ras G12C (P01116-2 other isoform, or with tags, fused parts or gaps G12C): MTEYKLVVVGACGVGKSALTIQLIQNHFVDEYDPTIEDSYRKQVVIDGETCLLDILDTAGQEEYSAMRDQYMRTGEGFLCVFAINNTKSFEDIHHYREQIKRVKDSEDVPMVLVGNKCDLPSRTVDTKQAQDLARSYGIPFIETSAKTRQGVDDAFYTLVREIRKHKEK
# Sequence of K-Ras G12C (P62937 whole entry): as the sequence (P62937 whole entry) above
Structure (SMILES),IC50 (K-Ras G12C) [nM],EC50 [1] [nM],IC50 (NRAS WT) [nM],IC50 (KRAS G12D) [nM],IC50 (K-Ras G13C) [nM],IC50 (NRAS G12C) [nM],IC50 (KRAS WT) [nM]
"C=CC(=O)N1CC[C@@]2(CCN2C(=O)N(C)[C@H](C(=O)N[C@H]2Cc3nc(cs3)-c3ccc4c(c3)c(c(-c3cccnc3[C@H](C)OC)n4CC)CC(C)(C)COC(=O)[C@@H]3CCCN(N3)C2=O)C(C)C)C1 (atropisomer, axis not shown) [Example A661]",10 to 100,< 5000,100 to 1000,1000 to 10000,100 to 1000,10 to 100,100 to 1000
"CCn1c(-c2cccnc2[C@H](C)OC)c2c3cc(ccc31)C1=CCCN(C1)C[C@H](NC(=O)[C@@H](COC1CN(C(=O)C#CC(C)(C)N(C)C)C1)C(C)C)C(=O)N1CCC[C@H](N1)C(=O)OCC(C)(C)C2 (atropisomer, axis not shown) [Example A663, (2R)-2-(((1-(4-(dimethylamino)-4-methylpent-2-ynoyl)405yridine405-3-yl)oxy)methyl)-N-((6^3S,4S)-1^1-ethyl-1^2-(2-((S)-1-methoxyethyl)405yridine-3-yl)-10,10-dimethyl-5,7-dioxo-2^1,2^2,2^3,2^6,6^1,6^2,6^3,6^4,6^5,6^6-decahydro-1^1H-8-oxa-1(5,3)-indola-6(1,3)-pyridazina-2(5,1)-pyridinacycloundecaphane-4-yl)-3-methylbutanamide]",< 10,< 5000,> 10000,> 10000,1000 to 10000,< 10,> 10000
"CCn1c(-c2cccnc2[C@H](C)OC)c2c3cc(ccc31)-c1csc(n1)C[C@H](NC(=O)[C@H](C(C)C)N(C)C(=O)N1CCN(C(=O)/C=C/CN3CCOCC3)C3(CC3)C1)C(=O)N1CCC[C@H](N1)C(=O)OCC(C)(C)C2 (atropisomer, axis not shown) [Example A665]",10 to 100,< 5000,10 to 100,100 to 1000,100 to 1000,10 to 100,10 to 100
"CCn1c(-c2cccnc2[C@H](C)OC)c2c3cc(ccc31)-c1csc(n1)C[C@H](NC(=O)[C@H](C(C)C)N(C)C(=O)N1CCC3(CC1)CN(C(=O)/C=C/CN1CCOCC1)C3)C(=O)N1CCC[C@H](N1)C(=O)OCC(C)(C)C2 (atropisomer, axis not shown) [Example A669]",10 to 100,< 5000,10 to 100,100 to 1000,100 to 1000,10 to 100,100 to 1000
"CCn1c(-c2cccnc2[C@H](C)OC)c2c3cc(ccc31)-c1csc(n1)C[C@H](NC(=O)[C@H](C(C)C)N(C)C(=O)N1CCC3(CC1)CN(C(=O)/C=C/CN1CCCCC1)C3)C(=O)N1CCC[C@H](N1)C(=O)OCC(C)(C)C2 (atropisomer, axis not shown) [Example A670]",100 to 1000,< 5000,100 to 1000,1000 to 10000,100 to 1000,100 to 1000,100 to 1000
"C/C=C/C(=O)N1CC2(CCN(C(=O)N(C)[C@H](C(=O)N[C@H]3Cc4nc(cs4)-c4ccc5c(c4)c(c(-c4cccnc4[C@H](C)OC)n5CC)CC(C)(C)COC(=O)[C@@H]4CCCN(N4)C3=O)C(C)C)CC2)C1 (atropisomer, axis not shown) [Example A671]",10 to 100,< 5000,100 to 1000,100 to 1000,100 to 1000,10 to 100,100 to 1000
"CCn1c(-c2cccnc2[C@H](C)OC)c2c3cc(ccc31)-c1nc(co1)C[C@H](NC(=O)[C@@H](COC1CN(C(=O)C#CC(C)(C)N(C)C)C1)C(C)C)C(=O)N1CCC[C@H](N1)C(=O)OCC(C)(C)C2 (atropisomer, axis not shown) [Example A675, (2R)-2-(((1-(4-(dimethylamino)-4-methylpent-2-ynoyl)azetidin-3-yl)oxy)methyl)-N-((6^3S,4S,Z)-1^1-ethyl-1^2-(2-((S)-1-methoxyethyl)pyridin-3-yl)-10,10-dimethyl-5,7-dioxo-6^1,6^2,6^3,6^4,6^5,6^6-hexahydro-1^1H-8-oxa-2(2,4)-oxazola-1(5,3)-indola-6(1,3)-pyridazinacycloundecaphane-4-yl)-3-methylbutanamide]",10 to 100,< 5000,> 10000,> 10000,> 10000,10 to 100,> 10000
"C=CC(=O)N1CCN(C(=O)N(C)[C@H](C(=O)N[C@H]2Cc3nc(cs3)-c3ccc4c(c3)c(c(-c3cccnc3[C@H](C)OC)n4CC(F)(F)F)CC(C)(C)COC(=O)[C@@H]3CCCN(N3)C2=O)C(C)C)CC12CC2 (atropisomer, axis not shown) [Example A679]",10 to 100,< 5000,10 to 100,100 to 1000,10 to 100,10 to 100,10 to 100
"C=C(OC)C(=O)N1CC2(CCN(C(=O)N(C)[C@H](C(=O)N[C@H]3Cc4nc(cs4)-c4ccc5c(c4)c(c(-c4cccnc4[C@H](C)OC)n5CC)CC(C)(C)COC(=O)[C@@H]4CCCN(N4)C3=O)C(C)C)CC2)C1 (atropisomer, axis not shown) [Example A681]",10 to 100,< 5000,100 to 1000,100 to 1000,100 to 1000,10 to 100,100 to 1000
"C=C(F)C(=O)N1CC2(CCN(C(=O)N(C)[C@H](C(=O)N[C@H]3Cc4nc(cs4)-c4ccc5c(c4)c(c(-c4cccnc4[C@H](C)OC)n5CC)CC(C)(C)COC(=O)[C@@H]4CCCN(N4)C3=O)C(C)C)CC2)C1 (atropisomer, axis not shown) [Example A682]",10 to 100,< 5000,100 to 1000,100 to 1000,100 to 1000,10 to 100,100 to 1000
"C=CC(=O)N1CC2(CCN2C(=O)N(C)[C@H](C(=O)N[C@H]2Cc3cccc(c3)-c3ccc4c(c3)c(c(-c3cccnc3[C@H](C)OC)n4CC)CC(C)(C)COC(=O)[C@@H]3CCCN(N3)C2=O)C(C)C)C1 (atropisomer, axis not shown) [Example A684]",< 10,< 5000,100 to 1000,1000 to 10000,100 to 1000,< 10,100 to 1000
"C=CC(=O)N1C[C@H]2CN(C(=O)N(C)[C@H](C(=O)N[C@H]3Cc4nc(cs4)-c4ccc5c(c4)c(c(-c4cccnc4[C@H](C)OC)n5CC)CC(C)(C)COC(=O)[C@@H]4CCCN(N4)C3=O)C(C)C)[C@H]2C1 (atropisomer, axis not shown) [Example A686]",10 to 100,< 5000,100 to 1000,1000 to 10000,100 to 1000,10 to 100,100 to 1000
"C=CC(=O)N1CC[C@H]2[C@@H](C1)CN2C(=O)N(C)[C@H](C(=O)N[C@H]1Cc2nc(cs2)-c2ccc3c(c2)c(c(-c2cccnc2[C@H](C)OC)n3CC)CC(C)(C)COC(=O)[C@@H]2CCCN(N2)C1=O)C(C)C (atropisomer, axis not shown) [Example A687]",100 to 1000,< 5000,100 to 1000,1000 to 10000,100 to 1000,100 to 1000,100 to 1000
"CCn1c(-c2cccnc2[C@H](C)OC)c2c3cc(ccc31)-c1csc(n1)C[C@H](NC(=O)C[C@@H]1COC3(CN(C(=O)C#CC(C)(C)N(C)C)C3)O1)C(=O)N1CCC[C@H](N1)C(=O)OCC(C)(C)C2 (atropisomer, axis not shown) [Example A691]",< 10,< 5000,1000 to 10000,1000 to 10000,1000 to 10000,< 10,1000 to 10000

# Source: patent US11566007B2, “Ras inhibitors” (Revolution Medicines, Inc., priority 2019, dated 2023)
